In a melting point compilation (Tetko et al.; mined from patent text by program, amines drawn as free bases though some values may be those of a salt):

melting point [°C] | SMILES
255 to 256 | O=C1C(=O)c2ccccc2C2=C1SCC1(CCN(c3cnccn3)CC1)O2
162 to 164 | Cc1cccc(COc2nn3c(-c4ccccc4)nnc3cc2C23CCC(CC2)C3)n1
111 to 115 | O=[N+]([O-])c1ccc(Oc2ccc(C(F)(F)F)cc2Cl)cc1C=NO
210 to 215 | NC(=O)NN=Cc1c(O)c(O)cc2ccccc12
162 to 163 | COc1cc(COc2nn(-c3ccccc3)cc2C=O)ccc1OCc1coc(-c2ccco2)n1
117 to 121 | COc1ccc(-c2cc(=Nc3c(C)cc(C)cc3C)n(C)c(N3CCN(C(=O)c4ccc(F)cc4)CC3)n2)cc1OC
102 to 103 | Cc1oc(-c2ccccc2)nc1COc1ccc(COc2ccc(-c3ccccc3)cc2CC(=O)O)cc1
130 to 134 | Cc1ccccc1C(CCC(=O)O)Oc1cc(OCc2cccnc2)ccc1C#N (configuration not stated)
89 to 90 | COC=C(C(=O)OC)N(C)c1cccc(-c2ccccc2)n1
188 to 194 | CCOC1=NS(=O)(=O)c2cc(NC=O)ccc21
32.5 to 33.5 | CCCCCCCCCCCCCc1cc[nH]c1
131 to 132 | Cc1nn(-c2cccc(N)c2)c2c1C(=O)CC(C)(C)C2
130 to 132 | Cc1ccc(Cl)cc1N1CN(C(C)(C)C)CN(C)C1=S
237 to 239 | CSc1ccc2c(C(=O)C(F)(F)F)c[nH]c2c1
51 to 53 | O=C1NC(=O)C(Cc2ccc(CCNCC(O)COc3ccc(OCc4ccccc4)cc3)cc2)S1 (configuration not stated)
185 to 186 | COc1ccc(Cn2nnnc2C(=O)Nc2cc(C(F)(F)F)cc(NC(=O)c3nnnn3Cc3ccc(OC)cc3)c2Cl)cc1
179 to 180 | O=[N+]([O-])c1ccc(N=C(NC(=S)NCc2cccnc2)c2ccccc2)cc1
134 to 135 | COc1ccc2c(N3CCc4c(Br)ccc(C)c43)ncnc2c1
81 to 82 | CON(C)C(=O)Nc1ccc(OCCc2ccc(C(C)C)cc2)cc1
159 to 162 | Cc1cc(-c2ccc(OC3SCC(O)C(O)C3O)c(F)n2)ccn1 (configuration not stated)
131 to 133 | CS(=O)(=O)N(Cc1cccnc1)c1cccc([N+](=O)[O-])c1
52 to 57 | CCCc1c(OCCCOc2cccc(NC(=O)C(=O)OCC)c2)ccc(C(C)=O)c1O

melting point [°C] | SMILES
171 to 174 | C[C@H](NC(=O)c1c[nH]c2ncc(-c3ccc(C(=O)NCc4cccc(C#N)c4)s3)nc12)C(C)(C)C
140 to 147 | COc1ccc(N2Cc3cnc(Nc4ccccc4)nc3N([C@@H](C)CO)C2=O)cc1
205 to 206 | NC(=NO)c1nn(-c2c(Cl)cc(C(F)(F)F)cc2Cl)c(N)c1S(=O)(=O)C(F)(F)F
116 to 117 | O=C(NCc1ccc2ccn(C3CCN(CCc4ccc(F)cc4)CC3)c2c1)C1CC1
114 to 116 | CC(C)(C)OC(=O)NCC(=O)Nn1cccc1C(=O)c1ccccc1F
166 | CC(C)(C)NC(=O)CN(C(=O)CN1C(=O)c2ccccc2C1=O)c1ccccc1
157 to 159 | COc1ccc(C2=NN(C3CCN(C(=O)c4ccccc4OC)CC3)C(=O)C(C)(C)C2)cc1OC
125 to 128 | C[C@@H]1OCCN(c2cc(N3CCOCC3)nc(-n3c(CO)nc4ccccc43)n2)[C@@H]1C (relative stereo)
124 to 128 | CCCCC12CCC3C4=C(CCC3C1CCC2=O)CC(OC)=CC4 (configuration not stated)
153 to 156 | CC1(C)Nc2c(Cl)cccc2NC1=O
216 to 218 | Brc1ccc2c(c1)N=C(N1CCOCC1)c1cccc3c1N2CC3
140 to 145 | CC12CCC3c4ccc(O)cc4C(O)C(Sc4ccc(Br)cc4)C3C1CCC2O (configuration not stated)
93 | CCCN(CCCCNC(=O)NC1Cc2ccccc2C1)C1CCc2ncsc2C1 (configuration not stated)
159 to 160 | Cc1nnc(-c2ccc3occ(-c4ccc5c(c4)C(C)(C)CS5)c3c2)o1
138 | Nc1cc(S(N)(=O)=O)sc1Cl
99 to 102 | CC1CCc2cc(N3C[C@H](CO)OC3=O)ccc2N1C(=O)OCc1ccccc1 (some centres not stated)
78 to 79 | C[C@H](C(=O)c1ccccc1F)n1ccn(-c2ccc(OC(F)(F)C(F)F)cc2)c1=O
205 to 207 | NC(=S)NN=Cc1ccc(N)cn1
201 to 203 | CN(Cc1ccc(COc2cccc3c2CN(C2CCC(=O)NC2=O)C3=O)cc1)c1ccccc1 (configuration not stated)
172 | CCOc1nc2c(nc1C(=O)O)c(C)nn2CC
210 to 215 | Cc1ccc(C2CC(C(N)=O)=NN2c2ccc(S(N)(=O)=O)cc2)cc1 (configuration not stated)
85 to 86 | COc1ccc(CCNCC(O)c2cc(OCc3ccccc3)cc(OCc3ccccc3)c2)cc1OC (configuration not stated)

melting point [°C] | SMILES
178 to 179 | O=C(Nc1ccc(-n2nc(C(F)(F)F)cc2C(F)(F)F)cc1)c1ccc(F)cc1C(F)(F)F
108 to 110 | N#CC1(O)COc2ccccc2OC1
90 to 91 | N#Cc1cccc(C2=Nc3cc(CO)c(-c4ccccc4F)cc3NC(=O)C2)c1
160 to 162 | Cc1ccc(-n2nc(Cl)cc2-c2ccc(S(C)(=O)=O)cc2)cc1F
84 to 85 | COc1ccc(C(NCC(=O)Nc2c(C(C)C)cccc2C(C)C)c2ccc(OC)cc2)cc1
91 | Cc1ccc(S(=O)(=O)N2[C@H](CCCc3nc(C)no3)CC[C@@H]2c2ccc(F)cc2)cc1 (racemic)
109 to 110 | O[C@@H](CNC1CN(C(c2ccccc2)c2ccccc2)C1)COc1ccc(OCc2ccccc2)cc1
164 to 165 | CC(C)(C)OC(=O)N1CCC(Oc2cccc3[nH]ccc23)C1 (configuration not stated)
157 to 159 | O=C(c1cc(C(F)(F)F)cc(C(F)(F)F)c1)N1CCC2(CC1)C(=O)NCN2c1ccccc1Cl
> 250 | N[C@@]1(C(=O)O)C[C@H](NC(=O)Nc2ccccc2Cl)[C@H]2[C@H](C(=O)O)[C@H]21 (relative stereo)
154 to 156 | CCCCCCn1nnc(NC(=O)Nc2c(C(C)C)cccc2C(C)C)n1
137 to 139 | CN(N)c1nc2ccccc2s1
> 230 | NC(=O)Nc1cccc2c1nc(/C=C/c1ccccc1)n2-c1ccccn1
183 to 184 | COc1cc(Nc2nccc(-c3ccc(N4CCCC(CO)C4)nc3)n2)cc(OC)c1OC (configuration not stated)
57 to 59 | CCCCCCCCCCCCc1nnn(C(CCCCCCCCCCCC)C(=O)O)n1 (configuration not stated)
113 to 117 | CCCc1nccn1Cc1ccc2c(c1)Cc1c(-c3ccsc3)n[nH]c1-2
214 to 215 | O=[N+]([O-])c1cc(C(F)(F)F)cc([N+](=O)[O-])c1P(=O)(c1ccccc1)c1ccccc1
150 to 151 | COc1cc(Nc2nccc(-c3ccc4c(c3)CCCC4)n2)cc(OC)c1OC
154 to 155 | CC(C)(C)OC(=O)N(C(=O)OC(C)(C)C)c1cc(-c2ccc([N+](=O)[O-])cc2)n(C(=O)OC(C)(C)C)n1
74 to 76 | CN1CCN(c2ccc(C(=O)NCCCCCCCCCCCCO[N+](=O)[O-])cn2)CC1
137 to 141 | CC(C)(C)OC(=O)N1CCC(c2nc3cc(-c4ccc(C#N)cc4)ccc3o2)CC1

SMILES | melting point [°C]
CN1CCN(c2cccc3ccc(NC(N)=S)cc23)CC1 | 194 to 195
COC(=O)c1ncn(C(c2ccccc2)c2ccccc2)c1C(=O)OC | 93
